Earlier results, collected in patent US20250177336A1 (RX BANDZ, INC., priority 2023, published 2025).

Conditions: zwitterionic form predominates

isoelectric point: ~7.3 pH
SMILES: NC[C@H]1CC[C@H](C(=O)O)CC1 [TXA, Tranexamic acid]
